Patent US20110039901A1, “PROCESS FOR PREPARING A CRYSTALLINE FORM COMPOUND OF 3-BENZYL-2-METHYL-2,3,3a,4,5,6,7,7a-OCTAHYDROBENZO[d]ISOXAZOL-4-ONE” (Abiogen Pharma S.P.A., priority 2008, published 2011)

Test: stability of the hydrochloride salt at elevated temperature
Assay type: physicochemical
Settings: at temperatures above 30° C.

CN1OC2CCCC(=O)C2C1Cc1ccccc1.Cl (stereo not shown) [hydrochloride salt of BTG 1640]
stability at temperature: unstable
